Data set [1] is described as follows: LC-MS. As to conditions: for plasma concentration (mean ± SD): fasted baseline plasma, 90 volunteers; for concentrations detected in plasma: individual volunteers, ESI Fig. S4. The format is in vivo, human.
A short description of data set [2]: LC-MS. The format is in vivo, human. The note with it: given as x : 1; plasma versus CSF concentrations.
For data set [3] the following is noted: cited from earlier work.

Consider `Cn1c(=O)c2c(ncn2C)n(C)c1=O` [1,3,7-Trimethylxanthine, reference compound], for which the “plasma concentration (mean ± SD)” value in data set [1] was found to be 179 ± 118 µM.
For the molecule `Cn1c(=O)c2[nH]cnc2n(C)c1=O` [1,3-Dimethylxanthine, reference compound], the “plasma : CSF ratio” value in data set [2] is recorded as 620.
On to `CCOC(=O)c1cc(O)c(O)c(O)c1` [3,4,5-trihydroxybenzene ethyl ester], for which, in data set [1], the “plasma concentration (mean ± SD)” value worked out at 0.0053 ± 0.0041 µM.
Turning to `O=C(O)c1cccc(O)c1` [3-Hydroxybenzoic acid], the “CSF concentration reported by a previous study” value in data set [3] was 58.5 nM.
For `Cn1c(=O)[nH]c(=O)c2[nH]cnc21` [3-Methylxanthine], the “plasma concentration (mean ± SD)” value in data set [1] came out at 5.3 ± 3.8 µM.
Regarding `O=c1ccc2ccc(O)c(O)c2o1` [7,8-Dihydroxycoumarin], the “concentrations detected in plasma” value in data set [1] is reported as “below 1 μM”. For the same molecule, the “plasma : CSF ratio” value in data set [2] is reported as 5.
Regarding `Oc1cc(O)c2c(c1)O[C@H](c1ccc(O)c(O)c1)[C@H](O)C2` [(−)-Epicatechin], in data set [1], the “concentrations detected in plasma” value is “below 1 μM”. Besides, the “plasma : CSF ratio” value in data set [2] is on record as 24.
With `O=C(O)CNC(=O)c1ccccc1` [hippuric acid], the “plasma concentration (mean ± SD)” value in data set [1] is 387 ± 243 µM.

(Values after paper PMC10544810 (Food & Function, 2023).)
